Data published in ChEMBL document CHEMBL1201862, “PubChem BioAssay data set” (2004).
Activity calls are given as the source filed them.

Experiments:
INS1 = assay: INS-1E survival protection against cytokine death – cell-based, luminescence, retest, dose response (AID 449756); type: functional; conditions: Rattus norvegicus;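 further: cell death triggered by IL-1 beta plus TNF-alpha plus IFN-gamma mixture; protective hits raise ATP signal compared with cytokine alone wells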
Nonstructural protein 1 = Nonstructural protein 1 (Influenza A virus, UniProt Q194T2); type: functional, Influenza A virus (A/California/07/2009(H1N1))
Mu-type opioid receptor = Mu-type opioid receptor (Homo sapiens, UniProt P35372); assay: HTS Image-Based Screen for Agonists of the MOR Receptor. [Related pubchem assays (depositor defined):AID1777, AID1785, AID1786, AID2133]; type: functional;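 further: imaging of beta-arrestin GFP recruitment into spots after receptor activation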
[1] = microbe, parasite or virus in culture; type: functional; conditions: Mycobacterium tuberculosis
[2] = luciferase reporter signal suppression in cells – H4 neuroglioma cells, luminescence, dose response (AID 1990); type: functional, cell-based
[3] = target: T1, Delta-type opioid receptor (Homo sapiens, UniProt P41143); assay: HTS Image-Based Screen for Agonists of the DOR Receptor. [Related pubchem assays (depositor defined):AID1777, AID1786, AID2133]; type: functional
T1 sequence (P41143 whole entry): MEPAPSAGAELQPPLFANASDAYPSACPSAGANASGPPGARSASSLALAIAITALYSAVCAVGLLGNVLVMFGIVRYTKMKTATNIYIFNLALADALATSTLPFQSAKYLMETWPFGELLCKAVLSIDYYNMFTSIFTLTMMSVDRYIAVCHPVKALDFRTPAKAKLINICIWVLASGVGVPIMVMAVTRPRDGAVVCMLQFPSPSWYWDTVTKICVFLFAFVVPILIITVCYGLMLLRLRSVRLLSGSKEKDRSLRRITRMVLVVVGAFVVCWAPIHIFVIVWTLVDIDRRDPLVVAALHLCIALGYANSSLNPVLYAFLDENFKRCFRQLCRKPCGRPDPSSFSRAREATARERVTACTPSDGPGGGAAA

[4] = alpha-synuclein stem-loop luciferase translation blockers – H4 neuroglioma cells, luminescence, confirmation (AID 1988); type: functional, cell-based
[5] = NIH3T3 cell viability loss – ATP luminescence, mouse fibroblasts, counter-screen, dose response (AID 2010); type: functional, cell-based;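 further: cells exposed to compound for about 90 hours before reading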
[6] = test system: Streptococcus sp. 'group A'; assay: Streptococcus pyogenes SK(-)GAS viability under kanamycin – luminescence, BacTiterGlo, confirmation, counter-screen for streptokinase expression inhibitor project, dose response (AID 1900); type: functional, organism-based
Streptokinase A = target: T2, Streptokinase A (Streptococcus pyogenes serotype M1, UniProt P10520); assay: viability-normalized secreted streptokinase activity reduction – plasminogen activation absorbance, OD405, dose response (AID 1914); type: functional, Streptococcus pyogenes M1 GAS;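 further: secreted streptokinase activity via plasminogen activation per viability signal from cell pellet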
T2 sequence (P10520 whole entry): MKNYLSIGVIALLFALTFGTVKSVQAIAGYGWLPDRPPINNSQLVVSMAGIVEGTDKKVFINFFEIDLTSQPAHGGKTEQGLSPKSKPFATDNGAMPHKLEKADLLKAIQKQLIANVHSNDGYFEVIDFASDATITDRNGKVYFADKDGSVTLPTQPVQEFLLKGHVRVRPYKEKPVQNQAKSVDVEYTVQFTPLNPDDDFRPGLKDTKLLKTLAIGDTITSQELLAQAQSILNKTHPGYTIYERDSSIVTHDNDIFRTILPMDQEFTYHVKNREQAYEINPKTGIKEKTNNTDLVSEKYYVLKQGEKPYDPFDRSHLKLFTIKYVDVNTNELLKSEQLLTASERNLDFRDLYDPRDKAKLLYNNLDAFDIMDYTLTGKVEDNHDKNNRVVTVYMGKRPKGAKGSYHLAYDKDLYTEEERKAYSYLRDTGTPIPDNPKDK

[7] = target: T3, Kappa-type opioid receptor (Homo sapiens, UniProt P41145); type: functional
T3 sequence (P41145 whole entry): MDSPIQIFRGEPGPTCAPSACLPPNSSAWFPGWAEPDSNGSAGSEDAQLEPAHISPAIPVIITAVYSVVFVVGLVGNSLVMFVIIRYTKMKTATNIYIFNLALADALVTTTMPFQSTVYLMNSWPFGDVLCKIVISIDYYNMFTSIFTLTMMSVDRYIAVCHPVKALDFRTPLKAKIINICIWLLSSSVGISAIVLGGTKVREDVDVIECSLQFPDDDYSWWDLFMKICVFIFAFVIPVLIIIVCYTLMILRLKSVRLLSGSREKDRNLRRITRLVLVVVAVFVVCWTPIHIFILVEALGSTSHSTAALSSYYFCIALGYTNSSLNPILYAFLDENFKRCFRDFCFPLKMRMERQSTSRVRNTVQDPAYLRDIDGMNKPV

[8] = viability of HCT116 lacking mutant beta-catenin – cell-based, human colon tumor, dose response (AID 1045); type: functional;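 further: HCT116 colon tumor cells with beta catenin knocked out; cells exposed to compound for 60 hours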
[9] = non-specific 3'UTR reporter inhibition in Clone20-Shn3RL – cell-based, Renilla luciferase, cherry-picked, counter-screen for Shn3 inhibitor project, dose response (AID 624133); type: functional
[10] = viability of PTEN-deleted HCT116 cells – cell-based, HCT116 PTEN knockout, dose response (AID 1047); type: functional;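 further: HCT116 colon tumor cells with PTEN knocked out; cells exposed to compound for 60 hours before readout; potency for loss of cell viability measured by luminescence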
[11] = target: T4, Short transient receptor potential channel 4 (Mus musculus, UniProt Q9QUQ5); assay: block of DAMGO-driven TRPC4 calcium entry – cell-based, HEK293 TRPC4/mu-opioid, Fluo-4 calcium, dose response (AID 434942); type: functional;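 further: potency of inhibitors blocking the TRPC4 calcium response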
T4 sequence (Q9QUQ5 whole entry): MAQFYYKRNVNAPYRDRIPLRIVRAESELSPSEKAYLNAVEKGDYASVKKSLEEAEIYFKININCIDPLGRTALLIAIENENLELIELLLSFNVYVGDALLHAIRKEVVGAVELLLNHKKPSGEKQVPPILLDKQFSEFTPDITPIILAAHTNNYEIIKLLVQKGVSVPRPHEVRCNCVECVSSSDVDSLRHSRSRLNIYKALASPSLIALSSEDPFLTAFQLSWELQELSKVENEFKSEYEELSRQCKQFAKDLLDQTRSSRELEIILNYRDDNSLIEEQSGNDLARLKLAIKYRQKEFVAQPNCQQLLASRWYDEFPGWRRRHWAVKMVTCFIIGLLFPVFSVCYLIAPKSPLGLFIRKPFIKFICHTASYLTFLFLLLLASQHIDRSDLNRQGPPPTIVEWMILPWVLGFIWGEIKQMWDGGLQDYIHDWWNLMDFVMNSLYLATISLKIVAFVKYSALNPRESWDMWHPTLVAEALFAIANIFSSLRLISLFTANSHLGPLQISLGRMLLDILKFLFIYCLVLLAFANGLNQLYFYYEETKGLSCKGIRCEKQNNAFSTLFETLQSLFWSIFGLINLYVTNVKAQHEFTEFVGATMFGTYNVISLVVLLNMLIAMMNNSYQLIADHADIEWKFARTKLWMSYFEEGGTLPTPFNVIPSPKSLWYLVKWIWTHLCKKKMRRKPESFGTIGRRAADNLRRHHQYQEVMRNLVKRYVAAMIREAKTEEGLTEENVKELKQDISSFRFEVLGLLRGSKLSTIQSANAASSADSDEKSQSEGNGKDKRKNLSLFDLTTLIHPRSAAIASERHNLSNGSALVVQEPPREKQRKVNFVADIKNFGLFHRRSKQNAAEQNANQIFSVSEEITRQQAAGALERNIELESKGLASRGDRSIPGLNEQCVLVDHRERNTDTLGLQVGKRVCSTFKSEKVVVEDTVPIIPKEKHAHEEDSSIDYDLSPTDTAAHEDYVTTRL

[12] = target: T3, Kappa-type opioid receptor; type: functional; remark: listed apart in the source
[13] = decrease of insulin promoter-GFP reporter – imaging, high-content screening, mouse beta cells (AID 1628); type: functional; conditions: MIN6
Streptococcus = assay: GAS UMAA2166 growth inhibition – luminescence, BacTiterGlo, counter-screen for streptokinase expression inhibitor project, dose response (AID 1915); type: functional, organism-based;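 further: potency for reduction of bacterial viability or growth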
cells [14] = type: functional, cell-based
cells [15] = type: functional, cell-based; remark: listed apart in the source
[16] = reduction of Shn3 3'UTR-driven luciferase in osteoblasts – cell-based, Clone20 osteoblasts, firefly luciferase, cherry-picked, dose response (AID 624132); type: functional;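 further: firefly luciferase luminescence from reporter carrying the Shn3 3'UTR in osteoblasts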
[17] = Trypanosoma cruzi growth suppression in host cells – NIH3T3 host cells, beta-gal luminescence, confirmation (AID 2044); type: functional, cell-based;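 further: intracellular parasites grown in NIH/3T3 mouse fibroblasts as host cells; luminescent beta-galactosidase reporter signal from transgenic T. cruzi replicating inside host cells; inhibitors lower the luminescence signal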
[18] = target: T1, Delta-type opioid receptor; assay: HTS Image-Based Screen for Antagonists of the DOR Receptor. [Related pubchem assays (depositor defined):AID1777, AID1785, AID1786, AID2133]; type: functional
[19] = loss of viability in HepG2 cells – cell-based, CellTiter-Glo, cherry-picked, cytotoxicity control for Shn3 inhibitor project, dose response (AID 624134); type: functional
Beta-galactosidase = Beta-galactosidase (Escherichia coli, UniProt Q8VNN2); type: functional
[20] = MIN6 cell viability loss – mouse insulinoma, cytotoxicity control, dose response (AID 2122); type: functional;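 further: confirmatory high-throughput counterscreen run to flag cytotoxic compounds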
[21] = target: T5, Tyrosine-protein phosphatase non-receptor type 22 (Homo sapiens, UniProt Q9Y2R2); assay: inhibition of lymphoid tyrosine phosphatase LYP – biochemical, pCAP fluorogenic substrate, fluorescence, set 3, SAR follow-up (AID 449727); type: functional
T5 sequence (Q9Y2R2 whole entry): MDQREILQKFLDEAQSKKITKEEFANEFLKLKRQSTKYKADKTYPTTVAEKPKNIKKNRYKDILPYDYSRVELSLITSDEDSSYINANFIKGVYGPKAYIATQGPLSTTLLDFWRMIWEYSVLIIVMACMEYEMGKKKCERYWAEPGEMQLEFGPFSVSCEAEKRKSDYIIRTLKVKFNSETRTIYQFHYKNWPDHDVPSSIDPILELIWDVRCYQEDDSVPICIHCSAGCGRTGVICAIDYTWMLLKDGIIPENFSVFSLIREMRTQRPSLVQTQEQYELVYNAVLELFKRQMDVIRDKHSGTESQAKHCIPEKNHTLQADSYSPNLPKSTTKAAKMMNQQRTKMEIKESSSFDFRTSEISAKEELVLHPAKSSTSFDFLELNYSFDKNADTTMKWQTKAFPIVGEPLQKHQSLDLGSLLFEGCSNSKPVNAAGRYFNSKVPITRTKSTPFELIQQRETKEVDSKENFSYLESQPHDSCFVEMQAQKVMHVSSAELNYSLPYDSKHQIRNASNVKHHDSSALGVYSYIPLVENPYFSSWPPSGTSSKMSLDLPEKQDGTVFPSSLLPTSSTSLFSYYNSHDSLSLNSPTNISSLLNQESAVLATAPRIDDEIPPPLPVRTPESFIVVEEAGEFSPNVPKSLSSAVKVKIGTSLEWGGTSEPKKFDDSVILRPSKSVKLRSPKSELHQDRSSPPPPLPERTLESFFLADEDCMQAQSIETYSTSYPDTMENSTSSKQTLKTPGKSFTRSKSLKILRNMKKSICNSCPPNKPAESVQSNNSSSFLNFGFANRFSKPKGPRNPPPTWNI

[22] = target: G-protein coupled receptor 55 (Homo sapiens, UniProt Q9Y2T6); assay: blockers of GPR55 signalling, imaged – imaging, image-based, counter-screen for GPR35 antagonist project, SAR follow-up (AID 2397); type: functional
[23] = target: Tyrosine-protein phosphatase non-receptor type 12 (Homo sapiens, UniProt Q05209); assay: SAR Selectivity Analysis of small molecule inhibitors of PEST using pCAP in a fluorescence assay. [Related pubchem assays (depositor defined):AID1779, AID1784, AID2135]; type: functional
Chain of Tyrosine-protein phosphatase non-receptor type 12 (Q05209 whole entry): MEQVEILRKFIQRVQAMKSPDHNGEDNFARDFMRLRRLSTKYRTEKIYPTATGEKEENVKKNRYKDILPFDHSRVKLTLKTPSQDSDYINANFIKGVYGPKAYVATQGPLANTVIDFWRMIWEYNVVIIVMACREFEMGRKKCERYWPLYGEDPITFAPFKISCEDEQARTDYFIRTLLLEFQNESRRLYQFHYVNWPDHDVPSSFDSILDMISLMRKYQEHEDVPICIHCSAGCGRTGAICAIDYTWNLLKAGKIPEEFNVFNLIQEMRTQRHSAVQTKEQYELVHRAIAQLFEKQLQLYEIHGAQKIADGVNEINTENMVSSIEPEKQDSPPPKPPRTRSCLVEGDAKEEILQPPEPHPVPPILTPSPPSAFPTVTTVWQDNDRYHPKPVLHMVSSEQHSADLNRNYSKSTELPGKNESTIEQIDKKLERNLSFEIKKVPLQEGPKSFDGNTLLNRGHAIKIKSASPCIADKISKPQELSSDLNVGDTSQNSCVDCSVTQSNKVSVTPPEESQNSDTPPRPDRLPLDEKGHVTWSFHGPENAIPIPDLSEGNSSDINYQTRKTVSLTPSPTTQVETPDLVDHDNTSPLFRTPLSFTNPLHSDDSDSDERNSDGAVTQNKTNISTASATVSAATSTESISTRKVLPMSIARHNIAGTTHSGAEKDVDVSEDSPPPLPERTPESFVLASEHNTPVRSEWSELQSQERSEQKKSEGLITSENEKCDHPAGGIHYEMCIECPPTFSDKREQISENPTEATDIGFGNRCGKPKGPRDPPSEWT

[24] = target: T5, Tyrosine-protein phosphatase non-receptor type 22; assay: SAR LYP1 Fluorescent Assay using OMFP substrate for In Vitro dose response studies - Set 3. [Related pubchem assays (depositor defined):AID1779, AID1784, AID2140, AID2686]; type: functional
[25] = target: Voltage-gated N-type calcium channel alpha-1B subunit/Amyloid beta A4 precursor protein-binding family A member 1 (Homo sapiens, UniProt Q00975+Q02410); type: protein assay
Chain of Voltage-gated N-type calcium channel alpha-1B subunit/Amyloid beta A4 precursor protein-binding family A member 1 (Q00975 whole entry): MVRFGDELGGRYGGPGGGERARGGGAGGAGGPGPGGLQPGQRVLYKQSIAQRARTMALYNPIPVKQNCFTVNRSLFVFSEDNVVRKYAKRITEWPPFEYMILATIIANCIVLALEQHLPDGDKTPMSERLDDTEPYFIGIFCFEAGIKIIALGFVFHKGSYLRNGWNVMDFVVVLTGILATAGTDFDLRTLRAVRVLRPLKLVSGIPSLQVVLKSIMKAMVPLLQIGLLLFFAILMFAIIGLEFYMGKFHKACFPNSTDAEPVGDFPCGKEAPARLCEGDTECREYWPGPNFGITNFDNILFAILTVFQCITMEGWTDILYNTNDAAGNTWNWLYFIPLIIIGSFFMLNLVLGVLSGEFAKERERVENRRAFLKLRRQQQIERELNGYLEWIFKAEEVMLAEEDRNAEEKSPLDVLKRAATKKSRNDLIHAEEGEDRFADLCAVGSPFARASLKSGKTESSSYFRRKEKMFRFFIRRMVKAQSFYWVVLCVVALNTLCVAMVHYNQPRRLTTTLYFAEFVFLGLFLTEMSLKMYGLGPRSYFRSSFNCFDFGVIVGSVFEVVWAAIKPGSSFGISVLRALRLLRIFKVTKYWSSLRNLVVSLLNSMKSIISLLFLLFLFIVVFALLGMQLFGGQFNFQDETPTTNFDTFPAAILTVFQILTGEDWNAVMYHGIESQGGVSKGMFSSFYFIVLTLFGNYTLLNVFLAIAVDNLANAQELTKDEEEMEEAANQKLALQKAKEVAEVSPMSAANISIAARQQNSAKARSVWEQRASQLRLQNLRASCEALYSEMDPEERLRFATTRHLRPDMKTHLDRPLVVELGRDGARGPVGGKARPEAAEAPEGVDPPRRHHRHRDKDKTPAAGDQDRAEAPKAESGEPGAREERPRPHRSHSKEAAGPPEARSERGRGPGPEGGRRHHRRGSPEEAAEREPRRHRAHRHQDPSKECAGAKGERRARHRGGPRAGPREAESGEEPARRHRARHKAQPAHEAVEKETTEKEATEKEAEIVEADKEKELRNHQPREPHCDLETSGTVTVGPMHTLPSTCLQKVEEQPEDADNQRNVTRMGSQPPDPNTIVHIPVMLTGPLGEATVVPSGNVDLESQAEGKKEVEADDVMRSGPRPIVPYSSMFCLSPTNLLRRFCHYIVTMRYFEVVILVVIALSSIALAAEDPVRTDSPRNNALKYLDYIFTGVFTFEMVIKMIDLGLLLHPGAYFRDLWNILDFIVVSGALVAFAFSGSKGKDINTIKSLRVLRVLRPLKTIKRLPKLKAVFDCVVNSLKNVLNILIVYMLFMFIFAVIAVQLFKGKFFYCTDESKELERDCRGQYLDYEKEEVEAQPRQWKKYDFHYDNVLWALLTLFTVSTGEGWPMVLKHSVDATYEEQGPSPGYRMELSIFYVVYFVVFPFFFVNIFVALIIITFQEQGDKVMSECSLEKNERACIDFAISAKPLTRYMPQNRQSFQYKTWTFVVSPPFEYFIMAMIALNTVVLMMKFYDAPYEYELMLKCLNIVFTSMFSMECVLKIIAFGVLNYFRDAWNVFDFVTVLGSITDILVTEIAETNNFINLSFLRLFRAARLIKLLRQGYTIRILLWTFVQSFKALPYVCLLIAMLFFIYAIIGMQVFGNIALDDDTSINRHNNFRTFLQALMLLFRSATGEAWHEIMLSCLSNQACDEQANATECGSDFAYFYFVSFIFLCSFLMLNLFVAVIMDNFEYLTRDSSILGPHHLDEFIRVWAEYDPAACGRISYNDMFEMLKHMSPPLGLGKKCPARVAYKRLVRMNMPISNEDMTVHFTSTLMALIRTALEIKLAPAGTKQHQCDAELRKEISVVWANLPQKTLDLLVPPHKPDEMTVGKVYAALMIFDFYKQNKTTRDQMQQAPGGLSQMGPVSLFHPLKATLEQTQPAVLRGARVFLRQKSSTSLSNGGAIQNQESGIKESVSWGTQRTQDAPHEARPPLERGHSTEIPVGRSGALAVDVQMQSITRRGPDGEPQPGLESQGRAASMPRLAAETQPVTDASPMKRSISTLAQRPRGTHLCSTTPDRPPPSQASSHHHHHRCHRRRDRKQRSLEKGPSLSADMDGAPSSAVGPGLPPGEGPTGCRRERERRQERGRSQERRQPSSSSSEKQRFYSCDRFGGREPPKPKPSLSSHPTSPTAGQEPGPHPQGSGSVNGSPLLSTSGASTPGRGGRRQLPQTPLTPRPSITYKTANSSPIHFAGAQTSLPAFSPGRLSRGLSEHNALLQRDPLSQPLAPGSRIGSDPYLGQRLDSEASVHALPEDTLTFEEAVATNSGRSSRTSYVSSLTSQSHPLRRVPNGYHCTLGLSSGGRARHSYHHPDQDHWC
Chain of Voltage-gated N-type calcium channel alpha-1B subunit/Amyloid beta A4 precursor protein-binding family A member 1 (Q02410 whole entry): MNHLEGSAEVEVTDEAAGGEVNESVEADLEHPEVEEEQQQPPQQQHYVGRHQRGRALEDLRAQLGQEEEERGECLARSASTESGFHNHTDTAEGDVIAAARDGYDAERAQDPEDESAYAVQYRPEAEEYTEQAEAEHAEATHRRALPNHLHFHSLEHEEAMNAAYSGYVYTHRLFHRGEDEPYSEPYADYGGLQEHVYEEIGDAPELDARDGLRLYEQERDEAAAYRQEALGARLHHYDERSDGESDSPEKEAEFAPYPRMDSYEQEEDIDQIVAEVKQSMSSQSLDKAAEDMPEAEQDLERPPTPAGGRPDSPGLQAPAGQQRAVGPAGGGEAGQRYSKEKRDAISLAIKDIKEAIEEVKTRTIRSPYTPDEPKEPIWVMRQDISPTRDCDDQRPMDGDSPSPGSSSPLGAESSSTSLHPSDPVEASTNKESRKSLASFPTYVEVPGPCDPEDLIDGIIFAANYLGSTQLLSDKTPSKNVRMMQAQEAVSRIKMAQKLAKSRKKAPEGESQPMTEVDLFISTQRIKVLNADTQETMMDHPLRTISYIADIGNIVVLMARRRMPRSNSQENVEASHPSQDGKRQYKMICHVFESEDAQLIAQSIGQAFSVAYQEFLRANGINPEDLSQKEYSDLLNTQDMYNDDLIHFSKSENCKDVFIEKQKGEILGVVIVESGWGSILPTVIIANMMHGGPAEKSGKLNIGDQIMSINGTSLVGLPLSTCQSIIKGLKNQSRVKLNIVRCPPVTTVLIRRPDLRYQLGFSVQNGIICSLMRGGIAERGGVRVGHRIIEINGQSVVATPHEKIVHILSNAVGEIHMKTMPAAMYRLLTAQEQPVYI

[26] = viability of uninfected HEp-2 cells – cell-based, HTS, cytotoxicity control for RSV inhibitor project, dose response (AID 2410); type: functional; conditions: human respiratory syncytial virus
[27] = target: T6, Dual specificity protein phosphatase 3 (Homo sapiens, UniProt P51452); assay: VHR1 phosphatase inhibitors, primary screen, biochemical, absorbance, uHTS (AID 1654)
T6 sequence (P51452 whole entry): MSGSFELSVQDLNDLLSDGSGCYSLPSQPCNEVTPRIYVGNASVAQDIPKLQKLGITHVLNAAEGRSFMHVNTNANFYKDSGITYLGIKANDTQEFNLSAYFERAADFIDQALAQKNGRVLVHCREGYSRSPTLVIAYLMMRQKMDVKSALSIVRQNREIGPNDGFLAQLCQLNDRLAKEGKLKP

[28] = target: T6, Dual specificity protein phosphatase 3; assay: VHR1 phosphatase inhibitors, biochemical (AID 1878)
[29] = target: Eukaryotic translation initiation factor 4E (Mus musculus, UniProt P63073); assay: blockers of eIF4G binding by eIF4E – biochemical, TR-FRET, dose response (AID 855); type: functional;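 further: potency for disrupting eIF4E binding to eIF4GI seen as loss of FRET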
[30] = target: T7, Calpain-2 catalytic subunit (Sus scrofa, UniProt P43367); assay: m-calpain protease blockers, concentration series – biochemical, fluorogenic peptide substrate, dose response (AID 1420); type: functional
T7 sequence (P43367 whole entry): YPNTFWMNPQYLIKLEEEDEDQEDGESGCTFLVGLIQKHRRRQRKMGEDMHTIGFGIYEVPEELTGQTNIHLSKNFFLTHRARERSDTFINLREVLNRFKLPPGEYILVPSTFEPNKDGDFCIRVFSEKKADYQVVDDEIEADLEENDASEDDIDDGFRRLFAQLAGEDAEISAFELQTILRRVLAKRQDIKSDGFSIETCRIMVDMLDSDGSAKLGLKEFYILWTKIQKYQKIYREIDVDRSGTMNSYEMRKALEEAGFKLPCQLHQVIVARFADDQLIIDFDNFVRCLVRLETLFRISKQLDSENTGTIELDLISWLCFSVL

[31] = target: T8, Dual specificity protein phosphatase 6 (Rattus norvegicus, UniProt Q64346); assay: inhibition of rat DUSP6 enzyme activity – biochemical, in vitro, primary screen (AID 425)
T8 sequence (Q64346 whole entry): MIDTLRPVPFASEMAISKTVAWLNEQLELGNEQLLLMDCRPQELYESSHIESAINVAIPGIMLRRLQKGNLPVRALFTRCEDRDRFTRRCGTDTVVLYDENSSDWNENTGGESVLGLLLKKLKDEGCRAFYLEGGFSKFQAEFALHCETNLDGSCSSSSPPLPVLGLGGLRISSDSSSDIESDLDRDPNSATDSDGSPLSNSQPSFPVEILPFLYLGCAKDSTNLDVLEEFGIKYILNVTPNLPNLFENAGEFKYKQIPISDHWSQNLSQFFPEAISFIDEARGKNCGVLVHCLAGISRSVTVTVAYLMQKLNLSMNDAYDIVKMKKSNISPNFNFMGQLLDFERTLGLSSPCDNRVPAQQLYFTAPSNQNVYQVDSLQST

In the case of `Oc1ccc(CN2CCc3ccccc3C2)c2cccnc12`, the AC50 (INS1) is reported as 1.83 µM (active), the IC50 (Nonstructural protein 1) is reported as 5.76 µM (active) and the EC50 (Mu-type opioid receptor) is reported as > 32 µM (inactive). The CC50 [1] was 1.62 µM (active), the EC50 [2] was < 0.1 µM (active) and the EC50 [3] was > 32 µM (inactive). For the same compound, the EC50 [4] was 0.528 µM (active), the EC50 [5] was 5.88 µM (active) and the EC50 [6] was 6.14 µM (active). For the same compound, the EC50 (Streptokinase A) was > 150 µM (not active), the IC50 [7] was 14 µM (active) and the EC50 [8] was 1.52 µM (active). The AC50 [9] was 0.971 µM (active), the EC50 [10] was 1.82 µM (active) and the EC50 [11] was 7.5 µM (active). The IC50 [12] was > 32 µM, the IC50 [13] was 1.96 µM (active) and the EC50 (Streptococcus) was 13.8 µM (active). The EC50 (cells [14]) was > 350 µM (not active), the EC50 (cells [15]) was 4.63 µM (active) and the AC50 [16] was 0.673 µM (active). For the same compound, the EC50 [17] was 0.529 µM (active), the IC50 [18] was > 32 µM (inactive) and the AC50 [19] was 1.69 µM (active). The EC50 (Beta-galactosidase) was > 31.5 µM (inactive) and the IC50 [20] was 1.69 µM (active).

With `CCOC(=O)c1ccc(NC(=O)CCCN2C(=O)/C(=C/c3ccccc3)SC2=S)cc1` the IC50 [21] was > 100 µM (inactive), the IC50 [22] was > 32 µM (inactive) and the IC50 [23] was 94.2 µM (active). For the same compound, the IC50 [24] was > 100 µM (inactive).

With `O=C(Nc1ccc(Cl)c(Cl)c1)Nc1nnc(-c2ccncc2)s1` the IC50 [25] was 21.1 µM (active), the CC50 [26] was 5.14 µM (active) and the IC50 [27] was 5.3 µM (active). The IC50 [28] was 1.56 µM (active), the IC50 [29] was > 64 µM (inactive) and the IC50 [30] was 3.64 µM (active). For the same compound, the IC50 [31] was 16.2 µM (active).
